Data on eleven compounds can be found in PubChem BioAssay AID651574 (The Scripps Research Institute Molecular Screening Center, 2012).

SMILES strings stand for the structures. Active and inactive are the calls of the source. How the calls were made is not given here.

For this assay, the system named is Core protein (Hepatitis C virus). The assay can be described thus: reduction of HCV RNA in infected cells – cell-based, fluorescence qPCR, two timepoints, counter-screen for HCV core dimerization inhibitor project, late-stage follow-up (AID 651574). Particulars: viral RNA qPCR. On the technique in general: Quantitative PCR measures a nucleic acid by following its amplification.

For orientation: IC50 means the concentration needed to halve the response being measured. With `Cc1ccc(Cc2c(C)nc3nc(SCC(=O)NCCN4CCN(Cc5ccc(F)cc5)CC4)nn3c2C)cc1`, where the note is “timepoint 1”, the IC50 is 0.099 µM. As to `Cc1ccc(Cc2c(C)nc3nc(SCC(=O)NCCN4CCOCC4)nn3c2C)cc1`, the IC50 (timepoint 1) is 12 µM. Consider `Cc1ccc(Cc2c(C)nc3nc(SCC(=O)NCCN4CCN(CCc5ccccc5)CC4)nn3c2C)cc1`, for which the IC50 (timepoint 1) was 3.07 µM. As for `Cc1ccc(Cc2c(C)nc3nc(SCC(=O)NCCN4CCCN(S(C)(=O)=O)CC4)nn3c2C)cc1`, the IC50 runs as follows: (timepoint 1) 18.9 µM; (timepoint 2) 24.3 µM (inactive).

Turning to `Cc1ccc(Cc2c(C)nc3nc(SCC(=O)NCCN4CCCN(S(=O)(=O)c5ccc(C)cc5)CC4)nn3c2C)cc1`, the IC50 was 2.7 µM (timepoint 1) and 7.2 µM (timepoint 2). Consider `Cc1ccc(Cc2c(C)nc3nc(SCC(=O)NCCN4CCNCC4)nn3c2C)cc1`, for which the IC50 (timepoint 2) was 1.8 µM. `Cc1ccc(Cc2c(CCc3ccccc3)nc3nc(SC(Cc4ccccc4)C(=O)NCCN4CCOCC4)nn3c2C)cc1` (configuration not stated): the IC50 (timepoint 1) is 7.7 µM. For the compound `Cc1ccc(Cc2c(C)nc3nc(SCC(=O)NCCN4CCCN(S(=O)(=O)c5ccccc5)CC4)nn3c2C)cc1`, the IC50 is, setting by setting: (timepoint 1) 3.2 µM; (timepoint 2) 2.2 µM. Regarding `Cc1ccc(Cc2c(C)nc3nc(SCC(=O)NCCN4CCCCCC4)nn3c2C)cc1`, the IC50 is, setting by setting: (timepoint 1) 8.5 µM; (timepoint 2) 13.7 µM. Regarding `Cc1ccc(Cc2c(C)nc3nc(SCC(=O)NCCCN4CCCCCC4)nn3c2C)cc1`, the IC50 (timepoint 1) is 6.7 µM and the IC50 (timepoint 2) is 12 µM. As for `Cc1ccc(Cc2c(C)nc3nc(SCC(=O)NCCN4CCN(S(=O)(=O)c5ccccc5)CC4)nn3c2C)cc1`, the IC50 is 5.3 µM (timepoint 1) and 12.5 µM (timepoint 2).
